From ChEMBL document CHEMBL4715767, “Pterin-7-carboxamides as a new class of aldose reductase inhibitors” (Bioorg Med Chem Lett, 2016)

The compounds below were run against T1, Aldo-keto reductase family 1 member B1 (Homo sapiens, UniProt P15121) (assay: Inhibition of recombinant human ALR2 using D,L-glyceraldehyde and NADPH as substrate preincubated for 3 mins followed by substrate addition and measured for 3 mins by spectrophotometric analysis). Details: not given.

**Q.** For `Nc1nc2ncc(C(=O)O)nc2c(=O)[nH]1` [PTERIN-6-CARBOXYLIC ACID], which IC50 is on record?
**A.** The IC50 was “Nd(Insoluble)”.

Same assay, conditions: read-out: IC50

**Q.** Which IC50 does the source give for `Nc1nc2nc(C(=O)N[C@H](C(=O)O)c3ccccc3)cnc2c(=O)[nH]1` here?
**A.** The IC50 was 42.6 µM.

**Q.** `CC(C)[C@H](NC(=O)c1cnc2c(=O)[nH]c(N)nc2n1)C(=O)O` was tested. Which IC50 did it give?
**A.** Its IC50 is 83.4 µM.

**Q.** How did the IC50 turn out when `Nc1nc2nc(C(=O)N[C@@H](C(=O)O)c3ccccc3)cnc2c(=O)[nH]1` was run?
**A.** The IC50 was 56.6 µM.

**Q.** Which IC50 does the source give for `Nc1nc2nc(C(=O)NCCCCCC(=O)O)cnc2c(=O)[nH]1` here?
**A.** Its IC50 is 4.02 µM.

**Q.** With `Nc1nc2nc(C(=O)N[C@H](Cc3ccccc3)C(=O)O)cnc2c(=O)[nH]1` as the compound, how does the IC50 read?
**A.** Its IC50 is 68.1 µM.

**Q.** `Nc1nc2nc(C(=O)NCCCC(=O)O)cnc2c(=O)[nH]1` was tested. Which IC50 did it give?
**A.** The IC50 was 25.5 µM.

**Q.** For `Nc1nc2nc(C(=O)NCCCCC(=O)O)cnc2c(=O)[nH]1`, which IC50 is on record?
**A.** The IC50 was 11.7 µM.

**Q.** Which IC50 does the source give for `Nc1nc2nc(C(=O)N[C@@H](CCc3ccccc3)C(=O)O)cnc2c(=O)[nH]1` here?
**A.** Its IC50 is 25.1 µM.

**Q.** With `Nc1nc2nc(C(=O)N[C@H](CO)C(=O)O)cnc2c(=O)[nH]1` as the compound, how does the IC50 read?
**A.** The IC50 was 130 µM.

**Q.** For `CC(C)[C@@H](NC(=O)c1cnc2c(=O)[nH]c(N)nc2n1)C(=O)O`, which IC50 is on record?
**A.** Its IC50 is 194 µM.

**Q.** With `Nc1nc2nc(C(=O)N[C@H](Cc3ccc(O)cc3)C(=O)O)cnc2c(=O)[nH]1` as the compound, how does the IC50 read?
**A.** Its IC50 is 580 µM.

**Q.** How did the IC50 turn out when `C[C@@H](NC(=O)c1cnc2c(=O)[nH]c(N)nc2n1)C(=O)O` was run?
**A.** Its IC50 is 72 µM.

**Q.** How did the IC50 turn out when `CC[C@H](C)[C@H](NC(=O)c1cnc2c(=O)[nH]c(N)nc2n1)C(=O)O` was run?
**A.** Its IC50 is 69 µM.

**Q.** Which IC50 does the source give for `Nc1nc2nc(C(=O)NCCC(=O)O)cnc2c(=O)[nH]1` here?
**A.** Its IC50 is 17.5 µM.

**Q.** Which IC50 does the source give for `CC[C@@H](C)[C@@H](NC(=O)c1cnc2c(=O)[nH]c(N)nc2n1)C(=O)O` here?
**A.** The IC50 was 278 µM.

**Q.** With `CC(C)C[C@@H](NC(=O)c1cnc2c(=O)[nH]c(N)nc2n1)C(=O)O` as the compound, how does the IC50 read?
**A.** Its IC50 is 97.2 µM.

**Q.** `Nc1nc2nc(C(=O)N[C@H](CCc3ccccc3)C(=O)O)cnc2c(=O)[nH]1` was tested. Which IC50 did it give?
**A.** Its IC50 is 42.1 µM.

**Q.** `Nc1nc2nc(C(=O)N[C@@H](CO)C(=O)O)cnc2c(=O)[nH]1` was tested. Which IC50 did it give?
**A.** Its IC50 is 29.2 µM.

**Q.** Which IC50 does the source give for `CC(C)C[C@H](NC(=O)c1cnc2c(=O)[nH]c(N)nc2n1)C(=O)O` here?
**A.** Its IC50 is 61.7 µM.

**Q.** For `Nc1nc2nc(C(=O)N[C@@H](Cc3ccc(O)cc3)C(=O)O)cnc2c(=O)[nH]1`, which IC50 is on record?
**A.** Its IC50 is 216 µM.

**Q.** Which IC50 does the source give for `Nc1nc2ncc(CNc3ccc(C(=O)N[C@@H](CCC(=O)O)C(=O)O)cc3)nc2c(=O)[nH]1` [FOLIC ACID] here?
**A.** The IC50 was 52.5 µM.

**Q.** For `Nc1nc2nc(C(=O)O)cnc2c(=O)[nH]1`, which IC50 is on record?
**A.** Its IC50 is 26.5 µM.

**Q.** For `Nc1nc2nc(C(=O)N[C@@H](Cc3ccccc3)C(=O)O)cnc2c(=O)[nH]1`, which IC50 is on record?
**A.** The IC50 was 46 µM.

**Q.** `Nc1nc2nc(C(=O)NCC(=O)O)cnc2c(=O)[nH]1` was tested. Which IC50 did it give?
**A.** Its IC50 is 1.97 µM.

**Q.** `C[C@H](NC(=O)c1cnc2c(=O)[nH]c(N)nc2n1)C(=O)O` was tested. Which IC50 did it give?
**A.** Its IC50 is 12.4 µM.

What follows are compounds tested against T1, Aldo-keto reductase family 1 member B1 (assay: Inhibition of recombinant human ALR2 at 10.5 mM using D,L-glyceraldehyde and NADPH as substrate preincubated for 3 mins followed by substrate addition and measured for 3 mins by spectrophotometric analysis relative to control). Details: time 6.0 min.

**Q.** How did the inhibition turn out when `Nc1nc2nc(C(=O)NCC(=O)N[C@@H](Cc3ccccc3)C(=O)O)cnc2c(=O)[nH]1` was run?
**A.** The inhibition was 9%.
